Data on 13 compounds can be found in ChEMBL document CHEMBL4725229, “Positional Analogue Scanning: An Effective Strategy for Multiparameter Optimization in Drug Design” (J Med Chem, 2020).

Active and inactive are the calls of the source. The rule behind the calls is not given here.

In series [1] the target is Sphingosine 1-phosphate receptor 1 (Homo sapiens) (UniProt P21453). The series can be described thus: Agonist activity at S1P1 (unknown origin) relative to control. As to conditions: filed as agonist.
The target of series [2] is T1, Sphingosine 1-phosphate receptor 3 (Homo sapiens, UniProt Q99500). The series is described as follows: Agonist activity at S1P3 (unknown origin).
Series [3] deals with T1, Sphingosine 1-phosphate receptor 3. The series is described as follows: Agonist activity at S1P3 (unknown origin) relative to control.
Series [4] in a line: Apparent permeability across apical to basolateral side in pig LLC-PK1 cells. It is filed as ADME, cell-based, Sus scrofa.

As a reminder, the Emax is the greatest response seen or fitted, relative to the assay's reference. In general, Papp A→B refers to the apparent permeability from the apical to the basolateral side of a cell layer.

T1 sequence (Q99500 whole entry): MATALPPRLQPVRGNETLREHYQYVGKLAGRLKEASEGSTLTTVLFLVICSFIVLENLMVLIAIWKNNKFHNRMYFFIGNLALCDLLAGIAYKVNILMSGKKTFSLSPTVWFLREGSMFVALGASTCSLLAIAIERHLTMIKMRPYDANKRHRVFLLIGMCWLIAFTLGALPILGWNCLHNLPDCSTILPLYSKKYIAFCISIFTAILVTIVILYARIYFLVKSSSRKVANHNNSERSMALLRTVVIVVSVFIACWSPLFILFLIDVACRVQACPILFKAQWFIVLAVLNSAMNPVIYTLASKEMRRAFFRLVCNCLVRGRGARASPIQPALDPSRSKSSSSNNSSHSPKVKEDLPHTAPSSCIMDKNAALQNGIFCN
Sphingosine 1-phosphate receptor 1 (Homo sapiens), sequence (P21453 whole entry): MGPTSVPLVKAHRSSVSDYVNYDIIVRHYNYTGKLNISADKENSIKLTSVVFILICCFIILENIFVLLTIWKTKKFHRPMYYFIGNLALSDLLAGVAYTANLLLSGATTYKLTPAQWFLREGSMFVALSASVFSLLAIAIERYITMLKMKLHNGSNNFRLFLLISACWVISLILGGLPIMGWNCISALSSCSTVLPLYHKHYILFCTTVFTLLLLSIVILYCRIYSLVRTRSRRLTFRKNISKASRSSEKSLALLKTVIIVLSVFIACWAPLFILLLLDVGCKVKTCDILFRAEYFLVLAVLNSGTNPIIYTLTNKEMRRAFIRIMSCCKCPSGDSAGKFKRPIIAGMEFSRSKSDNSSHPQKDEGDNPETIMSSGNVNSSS

In series [1], `Cn1cc(C(=O)Nc2ccc(-c3ccccc3)c(C(F)(F)F)n2)c(=O)c2cnccc21` displayed an Emax of 120%. The EC50 entry in series [2] was “Not Active”. In addition, the Emax entry in series [3] was “inactive”. In addition, the Papp A→B in series [4] stood at 6.7 ×10⁻⁶ cm/s.

Take `Cn1cc(C(=O)Nc2ccc(-c3ccccn3)c(C(F)(F)F)c2)c(=O)c2ccccc21`: the Emax in series [1] is 110%. In series [2], the EC50 result was “Not Active”. In addition, in series [3], the Emax result is “inactive”. Besides, in series [4], the Papp A→B stood at 11 ×10⁻⁶ cm/s.

As to `Cn1cc(C(=O)Nc2ccc(-c3ccccc3)c(C(F)(F)F)c2)c(=O)c2cccnc21`, in series [1], the Emax is 100%. Moreover, in series [2], the EC50 result was “Not Active”. Also, the Emax entry in series [3] is “inactive”. Also, in series [4], the Papp A→B was found to be 2.2 ×10⁻⁶ cm/s.

For the compound `Cn1nc(C(=O)Nc2ccc(-c3ccccc3)c(C(F)(F)F)c2)c(=O)c2ccccc21`, the Emax in series [1] was 130%. In addition, the EC50 result in series [2] is given as “Not Active”. Further, in series [3], the Emax result is “inactive”. The Papp A→B in series [4] came to 2.3 ×10⁻⁶ cm/s.

In series [1], `Cn1cc(C(=O)Nc2ccc(-c3ccccc3)c(C(F)(F)F)n2)c(=O)c2ccccc21` registered an Emax of 120%. In series [2], the EC50 entry is recorded as “Not Active”. For the same compound, the Emax entry in series [3] is “inactive”. In series [4], the Papp A→B was < 1 ×10⁻⁶ cm/s.

In the case of `Cn1cc(C(=O)Nc2ccc(-c3ccccc3)c(C(F)(F)F)c2)c(=O)c2ccccc21`, the Emax came to 110% in series [1] and 92% in series [3] (filed as agonist). Also, the Papp A→B in series [4] came out at 1.2 ×10⁻⁶ cm/s.

As for `Cn1cc(C(=O)Nc2ccc(-c3ccccc3)c(C(F)(F)F)c2)c(=O)c2ncccc21`, the Emax in series [1] was 86%. For the same compound, in series [2], the EC50 result is reported as “Not Active”. Moreover, the Emax result in series [3] is “inactive”. Moreover, the Papp A→B in series [4] came to 16 ×10⁻⁶ cm/s.

As for `Cn1cc(C(=O)Nc2cnc(-c3ccccc3)c(C(F)(F)F)c2)c(=O)c2ccccc21`, the Emax in series [1] was found to be 170%. Moreover, in series [2], the EC50 entry is on record as “Not Active”. The Emax result in series [3] was “inactive”. In series [4], the Papp A→B was determined as 11 ×10⁻⁶ cm/s.

For `Cn1cc(C(=O)Nc2cc(C(F)(F)F)c(-c3ccccc3)cn2)c(=O)c2ccccc21`, the Emax in series [1] was 59%. Also, in series [2], the EC50 entry is recorded as “Not Active”. Besides, the Emax entry in series [3] is “inactive”. Moreover, the Papp A→B in series [4] is < 1 ×10⁻⁶ cm/s.

Compound `Cn1cc(C(=O)Nc2ccc(-c3ccncc3)c(C(F)(F)F)c2)c(=O)c2ccccc21` yielded an Emax in series [1] of 110%. Further, the EC50 entry in series [2] is “Not Active”. In series [3], the Emax entry was “inactive”. The Papp A→B in series [4] turned out to be 15 ×10⁻⁶ cm/s.

Turning to `Cn1cc(C(=O)Nc2ccc(-c3ccccc3)c(C(F)(F)F)c2)c(=O)c2ccncc21`, the Emax in series [1] was determined as 120%. Besides, the EC50 result in series [2] is “Not Active”. Also, the Emax result in series [3] is “inactive”. For the same compound, the Papp A→B in series [4] is 3.4 ×10⁻⁶ cm/s.

`Cn1cc(C(=O)Nc2ccc(-c3cccnc3)c(C(F)(F)F)c2)c(=O)c2ccccc21` yielded an Emax in series [1] of 110%. In addition, in series [2], the EC50 entry was “Not Active”. Further, the Emax entry in series [3] is “inactive”. Also, the Papp A→B in series [4] was 18 ×10⁻⁶ cm/s.

For `Cn1cc(C(=O)Nc2ccc(-c3ccccc3)c(C(F)(F)F)c2)c(=O)c2cnccc21`, in series [1], the Emax is 100%. For the same compound, the EC50 entry in series [2] is listed as “Not Active”. For the same compound, in series [3], the Emax result was “inactive”. Further, the Papp A→B in series [4] turned out to be 5.7 ×10⁻⁶ cm/s.
